The text below walks through data of patent US11154057B2, “Use of nootkatone to treat mosquito infestations” (EVOLVA SA, priority 2016, dated 2021).

This series has as its system 3rd/4th instar larvae. Nature of the series: Duration of protection from larvae, Method 1: daily addition of new larval cohorts to treated beakers (Example No. 4). It is filed as in vivo. The protocol:
Method 1: Clean, glass 600 mL beakers were set up as test containers (such that the surface area of water to be treated was 54 cm^2), and were treated with 1 mL of 3% nootkatone in ethanol (v/v), or 1 mL of ethanol alone, as in Example No. 1, to achieve a final concentration of 0.03% nootkatone (v/v). After 24 hours, 100% of larvae were dead in the treated beakers, but 100% were alive in the control beakers, as in Example No. 1. An additional cohort of 25 larvae was added to each treatment beaker in the smallest practical volume of additional water, estimated at 1 mL per beaker. After an additional 24 hours, total live and dead larvae were counted and recorded. Testing continued by addition of new larval cohorts (25 per beaker, per day) for additional 24 hour periods until either there were no available 3rd/4th instar larvae, or until the rate of larval killing decreased.
In two replicate experiments, larvae cohorts were added to test containers in the presence of 0.03% nootkatone, 1% ethanol, starting 24 to 72 hours after addition of nootkatone and ethanol to the test containers (see FIGS. 5 and 6). In the second experiment, additional additional larval replicates were added simultaneously to test containers in the presence of 0.01% nootkatone, 1% ethanol (see FIG. 6).
In a separate experiment with the same experimental set-up, test containers were inoculated with nootkatone in ethanol 48 hours prior to addition of larvae (see FIG. 7). In these experiments, 100% of larvae were killed within 24 hours up to a week after nootkatone treatment. One week after addition of nootkatone, larval mortality was still at 94%.

Each structure is given as a SMILES string.

The term mortality denotes the share of the test organisms that died. Consider `C=C(C)[C@@H]1CCC2=CC(=O)C[C@@H](C)[C@]2(C)C1` [Nootkatone, nootkatone], for which, where the note is “0.01% nootkatone (v/v), 72 hours after application, FIG. 6”, the mortality rate entry was “about 10%”. Further, the mortality came to 100% (0.01% nootkatone (v/v), larvae added after application, through 48 hours, FIG. 6); 100% (0.03% nootkatone (v/v), larvae added 0, 24, 48, and 78 hours after application, FIG. 5); 100% (0.03% nootkatone (v/v), larvae added after application, through 48 hours, FIG. 6); 100% (0.03% nootkatone (v/v), through 72 hours after application, FIG. 6). Also, where the note is “0.03% nootkatone (v/v), after 24 hours, first cohort”, the larvae dead was 100%. Besides, the mortality rates entry (0.03% nootkatone (v/v), through one week of treatment, FIG. 7) is recorded as “greater than 90%”. The “larvae killed within 24 hours” value (0.03% nootkatone, containers inoculated 48 hours prior to larvae, up to a week after nootkatone treatment, FIG. 7) turned out to be 100%. Further, under “0.03% nootkatone, one week after addition of nootkatone, FIG. 7”, the larval mortality is on record as 94%.
